Measurements taken from patent publication US5849259A, “3-,8-substituted deuteroporphyrin derivatives, pharmaceutical agents containing the latter and process for their production” (priority 1992, dated 1998).

Key:
Novikoff-hepatoma = assay: Signal intensity change in tissues of tumor-bearing (Novikoff-hepatoma, i.m.) nude rats, Bruker Biospec 2.35 Tesla, MSSE; format: in vivo, nude rats (LEW/Mol rnu/rnu); conditions: 0.1 mmol/kg i.v.
Description: The measurements were made with a multi slice single echo sequence (MSSE). […] […] The relative intensities relative to the respective initial intensity (=1.00 set) are indicated.

[1] = test system: HT29 and WiDr colon cancer; assay: Signal intensity change in tissues of tumor-bearing (HT29 and WiDr colon cancer) nude mice, example 1c, 0.5 mmol/kg; format: in vivo, nude mice (Balb/c nu/nu); conditions: 0.5 mmol/kg i.v.
Method: d) On a Bruker Biospec nuclear spin tomograph (2.35 Tesla), the signal intensity change in various tissues of tumor-bearing (HT29 and WiDr colon cancer) nude mice (Balb/c nu/nu) was studied after i.v. administration of 0.5 mmol/kg of the compound of example 1c (10 mmol/l, pH 7.2; 37° C. in bidistilled water). The measurement takes place with a multi slice single echo sequence (MSSE). Imaging parameters: TR: 400 ms, TE: 30 ms, layer thickness: 4 mm, number of averages: 4/slice, matrix 256^2. After a preliminary image, 0.5 mmol/kg of the substance was administered and the signal intensity change studied up to 180 minutes p.i.

[2] = Tissue concentrations by ICP-AES 2 hours after 0.1 mmol/kg i.v. in nude mice with implanted carcinomas (HT29, WiDr, MATLu); format: in vivo, nude mice (Balb/c nu/nu)
Method: f) 9 nude mice (Balb/c nu/nu) with subcutaneously implanted carcinomas (HT29, WiDr and MATLu) were each administered by i.v. 0.1 mmol/kg of the deuteroporphyrin derivative of example 1c (10 mmol/L dissolved in bidistilled water, pH 7.2, 37° C.). After 2 hours, the animals were killed and dissected. The tissue concentrations were determined after corresponding working-up (HNO3 conc.) by ICP-AES and calculated for % of the administered dose per gram of tissue net weight. Moreover, tissue relaxation times T1 and T2 were determined (Bruker minispec pc 120). To determine the blank readings, control animals were correspondingly studied without KM-administration.

VX-2 carcinoma = assay: Signal intensity in tissues of tumor-bearing rabbit (VX-2 carcinoma), Siemens Magneton 1.5 Tesla; format: in vivo
Description: On a Siemens Magneton^(R) (1.5 Tesla; 64 MHz), the signal intensity in various tissues of a tumor-bearing rabbit [hare rabbit, Wulf, female, approximately 4 kg body weight (n=3), tumor of VX-2 carcinoma implanted intramuscularly about 3 weeks before the beginning of the test) was studied after the i.v. administration of […] body weight (corresponding to 0.05 mmol/kg of gadolinium) of the compound according to the invention produced according to Example 1c. The measurement took place with the following imaging parameters: T1 -weighted spin echo sequence: TR : 350 ms, TE : 15 ms, layer orientation: coronary, layer thickness 3 mm, number of averages: 4 per layer, field of view: 150 mm, matrix 256^2, 4-6 layers 1 echo per imaging sequence.
The relative signal intensities in various tissues are represented in FIG. 4. The output signal intensity (=SIprecontrast) in the various tissues was set equal to 1 in each case.

[3] = 0.0025 mmol/kg i.v. (corresponding to 0.05 mmol/kg of gadolinium)

Substance: N,N'-Bis[9-carboxylato-2,5,8-tris(carboxylatomethyl)-2,5,8-triazanonyl-carbamoyl]-mesoporphyrin-IX-13,17-diamide, digadolinium complex, disodium salt [Example 1c]
- elimination route (Novikoff-hepatoma): eliminated mainly renally
- average enhancement, Kidneys (Novikoff-hepatoma; 1 min): 1.67 ± 0.35
- average enhancement, Liver (Novikoff-hepatoma; 1 min): 1.43 ± 0.24
- average enhancement, Muscle (Novikoff-hepatoma; 1 min): 1.60 ± 0.01
- average enhancement, Tumor (Novikoff-hepatoma; 1 min): 1.63 ± 0.24
- average enhancement, Kidneys (Novikoff-hepatoma; 15 min): 2.13 ± 0.28
- average enhancement, Liver (Novikoff-hepatoma; 15 min): 1.34 ± 0.22
- average enhancement, Muscle (Novikoff-hepatoma; 15 min): 1.54 ± 0.06
- average enhancement, Tumor (Novikoff-hepatoma; 15 min): 1.71 ± 0.19
- average enhancement, Kidneys (Novikoff-hepatoma; 30 min): 2.14 ± 0.38
- average enhancement, Liver (Novikoff-hepatoma; 30 min): 1.31 ± 0.21
- average enhancement, Muscle (Novikoff-hepatoma; 30 min): 1.47 ± 0.08
- average enhancement, Tumor (Novikoff-hepatoma; 30 min): 1.72 ± 0.23
- average enhancement, Kidneys (Novikoff-hepatoma; 45 min): 2.10 ± 0.30
- average enhancement, Liver (Novikoff-hepatoma; 45 min): 1.17 ± 0.16
- average enhancement, Muscle (Novikoff-hepatoma; 45 min): 1.41 ± 0.10
- average enhancement, Tumor (Novikoff-hepatoma; 45 min): 1.79 ± 0.21
- average enhancement, Kidneys (Novikoff-hepatoma; 60 min): 2.12 ± 0.19
- average enhancement, Liver (Novikoff-hepatoma; 60 min): 1.31 ± 0.09
- average enhancement, Muscle (Novikoff-hepatoma; 60 min): 1.33 ± 0.05
- average enhancement, Tumor (Novikoff-hepatoma; 60 min): 1.78 ± 0.24
- average enhancement, Kidneys (Novikoff-hepatoma; 75 min): 1.93 ± 0.19
- average enhancement, Liver (Novikoff-hepatoma; 75 min): 1.37 ± 0.05
- average enhancement, Muscle (Novikoff-hepatoma; 75 min): 1.37 ± 0.01
- average enhancement, Tumor (Novikoff-hepatoma; 75 min): 1.64 ± 0.17
- average enhancement, Kidneys (Novikoff-hepatoma; 90 min): 1.96 ± 0.08
- average enhancement, Liver (Novikoff-hepatoma; 90 min): 1.22 ± 0.24
- average enhancement, Muscle (Novikoff-hepatoma; 90 min): 1.24 ± 0.03
- average enhancement, Tumor (Novikoff-hepatoma; 90 min): 1.75 ± 0.27
- average enhancement, Kidneys (Novikoff-hepatoma; 120 min): 1.92 ± 0.33
- average enhancement, Liver (Novikoff-hepatoma; 120 min): 1.23 ± 0.07
- average enhancement, Muscle (Novikoff-hepatoma; 120 min): 1.28 ± 0.08
- average enhancement, Tumor (Novikoff-hepatoma; 120 min): 1.77 ± 0.23
- average enhancement, Kidneys (Novikoff-hepatoma; 150 min): 1.86 ± 0.18
- average enhancement, Liver (Novikoff-hepatoma; 150 min): 1.16 ± 0.22
- average enhancement, Muscle (Novikoff-hepatoma; 150 min): 1.20 ± 0.06
- average enhancement, Tumor (Novikoff-hepatoma; 150 min): 1.73 ± 0.23
- average enhancement, Kidneys (Novikoff-hepatoma; 180 min): 1.84 ± 0.24
- average enhancement, Liver (Novikoff-hepatoma; 180 min): 1.07 ± 0.20
- average enhancement, Muscle (Novikoff-hepatoma; 180 min): 1.15 ± 0.04
- average enhancement, Tumor (Novikoff-hepatoma; 180 min): 1.85 ± 0.09
- average enhancement, Kidneys (Novikoff-hepatoma; 190 min): 1.73 ± 0.00
- average enhancement, Liver (Novikoff-hepatoma; 190 min): 1.27 ± 0.00
- average enhancement, Muscle (Novikoff-hepatoma; 190 min): 1.21 ± 0.00
- average enhancement, Tumor (Novikoff-hepatoma; 190 min): 1.45 ± 0.00
- signal intensity, liver and muscles (Novikoff-hepatoma; after 2-3 hours): the initial intensity almost returned
- increase in the intensity, studied tissues (Novikoff-hepatoma; directly after administration): ~60%
- signal intensity, tumor (Novikoff-hepatoma; during the observation time): remained at an almost unchanged high level
- signal intensity, kidneys relative to tumors (Novikoff-hepatoma; up to 150 minutes): high above that which could be determined in the tumors
- signal intensity change, liver tissue and both tumors ([1]; 5 minutes p.i.): marked signal intensity increase
- signal intensity change, muscle ([1]; reference tissue): smaller signal increase
- tissue concentration in prostate cancer (MATLu) versus colon cancers ([2]; 2 hours, 0.1 mmol/kg i.v.): greater than in the colon cancers
- tissue concentration, kidneys ([2]; HT29 mice, 2 hours): 6.23 ± 1.80 % of the administered dose per gram of tissue net weight
- tissue concentration, kidneys ([2]; MATLu mice, 2 hours): 2.73 ± 0.33 % of the administered dose per gram of tissue net weight
- tissue concentration, kidneys ([2]; WiDr mice, 2 hours): 4.23 ± 0.19 % of the administered dose per gram of tissue net weight
- tissue concentration, HT29 tumor ([2]; mouse, in vivo, iv, 2 h): 1.00 ± 0.27 % of the administered dose per gram of tissue net weight
- tissue concentration, MATLu tumor ([2]; mouse, in vivo, iv, 2 h): 1.92 ± 2.09 % of the administered dose per gram of tissue net weight
- tissue concentration, WiDr tumor ([2]; mouse, in vivo, iv, 2 h): 0.83 ± 0.05 % of the administered dose per gram of tissue net weight
- enhancement, implanted tumor (VX-2 carcinoma; [3]): good long acting enhancement
- enhancement, majority of the lymph nodes on the tumor-bearing side (VX-2 carcinoma; [3]): good long acting enhancement
- diagnosis of metastasis of the lymph nodes (VX-2 carcinoma; confirmed by histological study): a metastasis attack of the lymph nodes could therefore be diagnosed
